# Laboratory results taken from publication PMC13538172, “Zonisamide nanodiamonds for brain targeting: A comprehensive study utilising in silico, in vitro, in vivo, and molecular investigation for successful nose-to-brain delivery for epilepsy management” (Drug Delivery and Translational Research, 2025).
# Experiments:
# [1] = system: experimentally induced TLE in rats; experiment: EEG and behavioural seizures in pilocarpine-induced temporal lobe epilepsy (TLE); format: in vivo, adult male Wistar albino rats; details: intranasal 16 mg/kg/day of ZNS for 7 days
# Experimental: (§1) Temporal lobe epilepsy (TLE) was induced in rats using the pilocarpine model according to the method of Arshad et al.. Prior to the experiment, rats were housed in plastic cages at October University for Modern Science and Arts under controlled environmental conditions (temperatures of 25°±3°C and 50% humidity) with free access to water and softened standard pellet chow. The rats were injected with pilocarpine (300 mg/kg; i.p.) to induce status epilepticus (SE). Atropine (1 mg/kg; i.p.) was injected 30 minutes before pilocarpine injection to antagonize the peripheral muscarinic activity. SE was defined using the modified Racine scale by observing seizure severity categorized as stages 4 and 5. […] The SE seizures were left to last for 3 hours to induce hippocampus damage, after which diazepam (10 mg/kg; i.p.) was injected to attenuate the seizures. Lubricant ophthalmic gel was applied with a cotton swab to each eye to prevent the corneas from drying out during the seizures. The rats were hydrated with sterile Ringer's lactate injections (1 mL, i.p.) for 3 days post-SE induction. Animal welfare assessments were conducted multiple times per day for several days after the induction of SE. The Pilocarpine-inducted rats began to develop spontaneous recurrent seizures (SRS) as a characteristic of TLE within 3 weeks, after which the treatments were injected for 7 days, and the in vivo pharmacodynamic investigation was conducted. […]
# At the end of the experiment, SRS was monitored using a video recorder (6 hours/day) and scored according to the Racine scale. In addition, the brain activity was recorded using an electroencephalogram (EEG, powerlab module, which consists of Power-lab/8sp and Animal Bio-Amplifier, Australia). […]
# [2] = system: brain-derived neurotrophic factor (BDNF); experiment: Serum BDNF by ELISA in TLE rats; format: in vivo; details: TLE control 22.1 ± 1.7, normal group 76.8 ± 6.1
# Experimental: as §1, with “induction.” for “induction. Animal welfare assessments were conducted multiple times per day for several days after the induction of SE. The Pilocarpine-inducted rats began to develop spontaneous recurrent seizures (SRS) as a characteristic of TLE within 3 weeks, after which the treatments were injected for 7 days, and the in vivo pharmacodynamic investigation was conducted.”
# The serum levels of neuron-specific enolase (NSE), matrix metallopeptidase-9 (MMP-9), neurofilament light polypeptide (NEFL), and brain-derived neurotrophic factor (BDNF) were measured by ELISA technique using the following standard kits CAT no. […]
# [3] = system: brain hippocampus; experiment: Histopathological examination of the brain hippocampus in TLE rats; format: in vivo; details: H&E, Fig. 12
# Experimental: as §1, with “Arshad” left out, “SE.” for “SE. The Pilocarpine-inducted rats began to develop spontaneous recurrent seizures (SRS) as a characteristic of TLE within 3 weeks, after which the treatments were injected for 7 days, and the in vivo pharmacodynamic investigation was conducted.”
compound,measurement,setting,value
"NS(=O)(=O)Cc1noc2ccccc12 [ZNS, Zonisamide]",maximum spike amplitude during the SRS,[1]; n = 8,0.4 ± 0.1 mV
same,mean duration of single SRS (epileptogenic ictal discharge in EEG),[1]; n = 8,96.5 ± 2.9 s
same,incidence of motor seizures per 6 h,[1]; video recording 6 hours per day,3.5 ± 0.5
same,serum level of BDNF,[2],47.45 ± 1.9 pg/mL
same,"hippocampal histopathology, result in words",[3],noticeable neuroprotective efficacy
